How the values were obtained:
human skin fibroblasts [1] = assay: Extraction assay, mitochondrial metabolic activity (MTT); details: 24 h
Description: Cell culture. Primary human skin fibroblasts were grown in DMEM complete medium, at 37° C. in a fully humidified air containing 5% CO2 (IR auto Flow). The cells were fed every 2 to 3 days. When cells reached confluence, the culture medium was discarded and the cells washed with 5 mL of 10 mM phosphate buffered saline (PBS) pH 7.4 (Gibco). The cells were then detached with 2 mL of 0.05% (w/v) trypsin (1:250, from porcine pancreas (Sigma)) solution (PBS supplemented with 0.1% and 0.25% of α-D(+) glucose and EDTA, respectively) for 5 min at 37° C., and 3 mL of DMEM complete medium was added to inactivate the trypsin after cell detachment. The cells were centrifuged (10 min, 2500 rpm) and resuspended in culture medium before use. Cultures between the 3rd and 7th passages were used in the entire work.
All solutions were prepared on the day of application.
Extraction assay. The extraction assay was performed in two sets of hydrogels. […] In the second set the hydrogels obtained after the polymerization reaction were immersed in 10 mL of 10 mM citrate-phosphate pH 7.0 and immediately autoclaved. Extracts were obtained by immersing autoclaved hydrogels in DMEM (without phenol red) culture medium supplemented with 1% of fungizone and 0.5% of gentamicin, at 37° C., for 5 days with agitation (120 rpm). The ratio between the surface area of the material and the volume of extraction medium was 3 cm^2/mL. Following incubation the medium containing the extract was collected, filtered (0.22 μm; to eliminate the possible presence of solid particles of the material) and supplemented with 10% of serum. Human skin fibroblasts were plated in 96-well plates (TPP, Switzerland) and grown to subconfluency. The culture medium was removed and replaced with the extract media for 24 h at 37° C. Phenol (64 g/L, BDH) which is considered cytotoxic^17, was used as a positive control. Culture medium without extracts, incubated as described above, was used as a negative control. Following incubation the extracts were discarded and the mitochondrial metabolic activity of the cells was measured with the MTT assay.
Mitochondrial metabolic activity assay. For 96-well plates, the cell layers were rinsed with PBS (110 μL) and 110 μL of MTT (0.45 mg/mL in DMEM complete medium w/o phenol red) was added to each well. For 6-well plates, after PBS washing (1 mL), 2.5 mL of MTT solution was added. After 3 h incubation at 37° C., the MTT solution was removed and the insoluble formazan crystals formed in the bottom of the wells were dissolved in 100 μL or 1 mL of DMSO, for 96 and 6-well plates respectively. The absorbance was measured at 540 nm using a plate reader (STL Spectra III, Austria).

human skin fibroblasts [2] = assay: Cell proliferation inhibition index (CPII) assay: direct contact assay; details: 72 h
Description: Cell proliferation inhibition index (CPII) assay: direct contact assay. […] Since each well has a surface area of 0.31 cm^2, the final seeding density was ca. 5×10^3 cells/cm^2. After 4 h (the cells were adherent to the well bottom), the culture medium was discarded and 200 μL of each test solution was added to each well. For the control culture, the medium was refreshed. Seventy-two hours after the addition of test solutions, the extracts were discarded and the cell layer was washed with PBS to remove remaining materials and loose cells. The metabolic activity of the cells was then measured with the MTT test (see below). The CPII was calculated using eq. 6: [formula]
To evaluate the CPII for dexT70-VA hydrogels (extracted for 3 days in water at 25° C. and then sterilized by autoclave), 3 mL of a fibroblast suspension containing 1.5×10^4 cells/mL was plated into each well of a 6-well plate, to yield a final density of 5×10^3 cells/cm^2. After 4 h, the culture medium was refreshed (3 mL) and the hydrogels were added to the wells, in direct contact with cells (FIG. 1A). For the control culture, the culture medium was refreshed. After 72 h of incubation, the metabolic activity of the cells was assessed as previously described and the CPII calculated according to eq.6.
Mitochondrial metabolic activity assay. […] The absorbance was measured at 540 nm using a plate reader (STL Spectra III, Austria).

Molecule | effect on MMAF (human skin fibroblasts [1]; concentrations above 2.5 μL/mL) | CPII (human skin fibroblasts [2]; all concentrations) | CPII (human skin fibroblasts [2]; above 2.5 μL/mL) | increase in the MMAF (human skin fibroblasts [1]; solution 10 mg/mL) | effect on MMAF (human skin fibroblasts [1]; solution 20-100 mg/mL)
N.N.O=S(=O)(O)OOS(=O)(=O)O [APS, ammonium persulfate] | significant (P<0.001) decrease in MMAF | ca. 90% |  |  | 
CN(C)CCN(C)C [TEMED, N,N,N′,N′-tetramethylenediamine] | significant (P<0.001) decrease in MMAF |  | the same phenomenon was observed |  | 
Dextran [reference compound] |  |  |  | ca. 20% | not significant

Reference: patent publication US20040137582A1, “Methods for manufacturing polysaccharide derivatives” (priority 2002, published 2004)
